Molecules are shown by their SMILES. Converted amounts (≈) assume the structure as drawn.

The subject of one data set is Aphidius rhopalosiphi. Briefly: LR50; higher = less toxic. As to conditions: not reported; mortality.
The next data set has as its system Apis mellifera. The settings on record: acute; duration: 48 hours; dermal; mortality.
The test system of the next data set is Anas platyrhynchos. As to conditions: short-term; oral; feed; mortality.
The test system of the next data set is Tagia sp. As to conditions: acute; duration: 14 days; mortality.
The test system of a further data set is Lepomis macrochirus. As to conditions: acute; duration: 96 hours; mortality.
The next data set concerns Folsomia candida. The settings on record: chronic/long-term; duration: 28 days; mortality.

Take `[O-][n+]1nc(-n2ccnc2)nc2ccc(Cl)cc21` [Triazoxide]: the LR50 with Aphidius rhopalosiphi is over 5.13 g/ha. The LD50 with Apis mellifera was over 200 µg/piece; in the data set on Anas platyrhynchos, 268 mg/kg-day; in the data set with Rattus norvegicus (acute, oral, mortality) it was 98 mg/kg-day; with Coturnix japonica (acute, oral, mortality), 90 mg/kg-day. The LC50 with Tagia sp. was over 1000 mg/kg; with Lepomis macrochirus it was 0.077 mg/L (≈ 0.311 µM). The compound also gave an LOAEL with Rattus norvegicus (chronic, duration: 2 years, oral, diet, hematological) of 0.05 mg/kg-day. In addition, the NOAEL with Rattus norvegicus (reproduction developmental, organ weight) stood at 0.11 mg/kg-day; with Rattus norvegicus (reproduction developmental, reproduction), 2.04 mg/kg-day; in the data set with Rattus norvegicus (short-term, duration: 28 days, oral, hematological), 1.5 mg/kg-day; in the data set on Rattus norvegicus (subchronic, duration: 90 days, oral, hematological) it was 0.21 mg/kg-day. The NOEC worked out at 11.7 mg/kg-day with Coturnix japonica (reproduction developmental, duration: 6 weeks) and 500 mg/kg in the data set with Folsomia candida.

These data come from EPA's ToxValDB 9.5 (doi:10.2903/j.efsa.2009.193r).
